Assay results as given in patent US20230340149A1, “METHODS OF TREATMENT OF INFLAMMATORY BOWEL DISEASES” (INSERM (INSTITUT NATIONAL DE LA SANTÉ ET DE LA RECHERCHE …, priority 2020, published 2023).
Like-named read-outs stand apart in the source and are kept apart here.

Tests used:
[1] = in vivo, cited from earlier work
[2] = system: thrombin activity in human colonic tissues from CD patients; assay: In situ zymography of thrombin activity on frozen colonic tissue sections; format: biochemical; conditions: CD patient colonic cryo-sections, 10 μM, data not shown
[3] = system: TNBS-induced colitis in rats; assay: TNBS-induced colitis in rats, daily intracolonic treatment; format: in vivo, rat; conditions: vs vehicle
[4] = cited from earlier work
[5] = system: IBD patients; conditions: in vivo; cited from earlier work
[6] = system: adherent-invasive Escherichia coli (strain LF82) biofilms; assay: Adhesion and invasion of bacteria from thrombin-exposed E. coli LF82 biofilms on Caco2 monolayers; format: cell-based
Description: Panel B) Biofilms of adherent-invasive Escherichia coli (strain LF82) were formed into the Calgary Biofilm Device (Innovotech, Canada). After 48 hours of incubation (37° C., anaerobic environment), biofilms were exposed to various concentrations of human thrombin (0, 10, 100 to 1000 milliunit/ml). After 24 hours, dispersed bacteria from thrombin-treated biofilms were collected and apically exposed to human epithelial monolayers on 12-wells plates (Caco2, ATCC HB37). Bacterial adhesion to epithelial surface was assessed. Briefly, after 90 minutes of co-culture, cells were vigorously washed in PBS, and lyzed in Triton X100 0.1% for 10 minutes, after which live cell bacteria were counted on Columbia blood agar (CFU were counted after 24 hours incubation of plates at 37° C.). Data represent fold change CFU/ml count compared to untreated controls (=1). ANOVA with Fisher's LSD test, *P<0.05
Panel C) Mucosa-associated microbiota was extracted from 3 healthy human colon biopsies (collected in Toulouse Hospital under ethic approval CODECOH Colic-DC2015-2443), under anaerobic condition, and were seeded into the Calgary Biofilm Device (Innovotech, Canada) to develop a multispecies biofilm. After 48 hours of incubation (37° C., anaerobic environment), biofilms were exposed to human thrombin (0 and 100 milliunit/ml). […] Bacterial invasion into epithelial cells was assessed. […]

[7] = system: mouse colon; assay: Daily intracolonic administration of thrombin in mice, inflammation parameters; format: in vivo
Description: Thrombin (specific activity 2000 NIH units/mg protein, T6884, Sigma) was administered daily for 10-days intracolonically daily (5 U/mouse in 50 μl in saline, 0.9% NaCl) under light anaesthesia (3% isoflurane) in PAR-1^−/−, PAR4^−/−, littermates and in mice purchased from Janvier laboratories. Controls received heat-inactivated thrombin (same dose, 10 minutes at 100° C.) or saline alone. After intracolonic instillation, mice were kept upside-down for 2-min to allow colonic diffusion of the administered solution. After 10-days, mice were sacrificed by cervical dislocation and inflammation parameters were measured.
TNBS colitis was induced in fasted rats as previously described^20,21. Animals were housed in ventilated cages, acclimatized for one week before experiment started and beddings were mixed twice. Briefly, TNBS was prepared at a final concentration of 120 mg/ml in 50% ethanol in saline and was kept in the dark before use. A catheter was inserted at 8 cm from the anus and 30 mg of the TNBS solution was instilled through the catheter into the lumen in a final volume of 250 μl/rat. For TNBS colitis induction in mice, fasted animals were lightly anesthetized with halothane. A polyethylene catheter was inserted intracolonically 4 cm from the anus and TNBS (2 mg/mouse in 100 μl) dissolved in a solution of saline plus 40% ethanol was pushed into the catheter. At time of the sacrifice, colonic tissues were harvested. Before opening the colon, luminal washes with a PBS solution were performed in order to measure thrombin activity in those washes. Colons were then cut opened. Macroscopic damage scores were evaluated as previously described^9, by a skilled observer unaware of the treatments. When observed, the following parameters were given score of 1: hemorrhage, edema, stricture, ulceration, fecal blood, mucus, and diarrhea. Erythema was scored a maximum of 2 depending on the length of the area being affected (0, absent; 1, less than 1 cm; and 2, more than 1 cm). Adhesion was scored based on its severity (0, absent; 1, moderate; and 2, severe). Colon thickness was measured using an electronic caliper (Mitutoyo, Mississauga, Canada, resolution 0.01 mm). MPO activity was measured as an index of granulocyte infiltration as previously described. Tissue samples were homogenized in a solution of 0.5% hexadecyltrimethylammonium bromide dissolved in phosphate buffer solution (pH 6.0) for 1 min. Homogenized tissues were centrifuged at 13 000 g for 2 min. Supernatants were added to a buffer supplemented with 1% hydrogen peroxide, and O-dianisidine dihydrochloride solution. Optical density readings were taken for 1 min at 30 s intervals at 450 nm^22. Results were normalized to total protein content and expressed as OD450 nm/min/μg/ml. For bacterial translocation assays, mesenteric lymph nodes were collected aseptically, weighed and homogenized before being plated at 37° C. in Columbia blood agar (BD Biosciences) for 24 h for aerobes, and for 48 h for anaerobes left in anaerobic jars^9. For permeability assays, mice received orally 4-kDa FITC Dextran (Sigma Aldrich) at the dose of 600 mg/kg body weight in PBS, and blood was collected 1-h after. Fluorescence for FITC-Dextran presence in serum was measured by spectrophotometry (excitation 485 nm, emission 528 nm)^23. Apoptosis was measured by TUNEL (terminal deoxynucleotidyl transferase dUTP nick end labeling) staining in mouse colonic tissues as previously described^24,25. Five random fields were captured per tissue section and percent of apoptotic cells was determined by an observer unaware of the treatments.

[8] = system: human mucosa-associated microbiota biofilms; assay: Adhesion of bacteria dispersed from thrombin-exposed human mucosal biofilms to Caco2 monolayers; format: cell-based; conditions: biofilms exposed to 1 U/ml
Description: Methods for FIG. 7. Panel A: Mucosa-associated microbiota was extracted from 4 healthy human colon biopsies (collected in Toulouse Hospital under ethic approval CODECOH Colic-DC2015-2443), under anaerobic condition, and were seeded into the Calgary Biofilm Device (Innovotech, Canada) to develop a multispecies biofilm. After 48 hours of incubation (37° C., anaerobic environment), biofilms were exposed to various concentrations of human thrombin (0, 10, 100 and 1000 milliunit/ml). After 24 hours, dispersed bacteria from thrombin-treated biofilms were collected and apically exposed to human epithelial monolayers on 12-wells plates (Caco2, ATCC HB37). Bacterial adhesion to epithelial surface was assessed. Briefly, after 90 minutes of co-culture, cells were vigorously washed in PBS, and lyzed in Triton X100 0.1% for 10 minutes, after which live cell bacteria were counted on Columbia blood agar (CFU were counted after 24 hours incubation of plates at 37° C.). Data represent fold change CFU/ml count compared to untreated controls (=1). ANOVA with Fisher's LSD test, *P<0.05, ***P<0.001.

[9] = system: cytochrome P450 enzymes; conditions: cited from earlier work
[10] = highly basic guanidine; cited from earlier work
[11] = HAT 1, 2, 3 studies, HIT, versus historical controls
[12] = 50 μl of 100 U/ml per mouse daily for 10 days, vs vehicle (saline)

## N=C(N)c1ccc(CNC(=O)[C@@H]2CCN2C(=O)[C@H](NCC(=O)O)C2CCCCC2)cc1 [melagatran]
[1]
  oral availability / oral activity: poorly orally available

## [H]/N=C(/N)c1ccc(NCc2nc3cc(C(=O)N(CCC(=O)O)c4ccccn4)ccc3n2C)cc1 [Dabigatran]
[2]
  thrombin activity detected in tissue (VPR-AMC substrate): inhibited
[3]; 100 μl 5 μM
  MPO activity: reducing significantly
  colon thickness: reducing significantly
  macroscopic damage score: reducing significantly
  weight loss: reducing significantly
[3]
  blood in the feces (fecal bleeding score): reduced significantly
[1]
  oral availability / oral activity: not orally active

## lepirudin
[4]; [11]
  risk for major bleeding: increased
  risk of new thrombosis: decreased

## heparin
[5]
  benefit of treatment in IBD patients: some benefits

## CCOC(=O)CN[C@@H](C(=O)N1CC[C@H]1C(=O)NCc1ccc(/C(N)=N\O)cc1)C1CCCCC1 [Ximelagatran]
[4]; treatment for over 35 days
  hepatic toxicity: linked with the risk of hepatic toxicity

## thrombin
[6]; biofilms exposed to 0.01 U/ml
  adhesion to human intestinal epithelium monolayers: adhered significantly more
[6]; biofilms exposed to 0.1 U/ml
  ability to invade human intestinal epithelium monolayers: significantly increased
[7]; 50 μl of 100 U/ml per mouse daily for 10 days
  translocation of aerobic bacteria into mesenteric lymph nodes: caused the translocation
[7]; [12]
  colon thickness: significant increase
  macroscopic damage: caused macroscopic damage
[7]; PAR4-deficient mice
  damage score, wall thickness and MPO activity: significantly reduced
[7]; PAR-1-deficient mice
  macroscopic damage, colonic wall thickness and MPO activity: still exhibited significant
[7]; vs vehicle or boiled thrombin
  translocation of anaerobic bacteria: not significantly different
[8]
  potential to adhere to human intestinal epithelium monolayers: increased

## CCCCCCOC(=O)NC(=N)c1ccc(NCc2nc3cc(C(=O)N(CCC(=O)OCC)c4ccccn4)ccc3n2C)cc1 [dabigatran etexilate]
[9]
  interaction with cytochrome P450 enzymes: lacks interaction
[1]
  eliminated by the kidneys: > 80%
  plasma half-life: approximately 12 hours
[4]; long-term treatment
  hepatic toxicity: has not been linked with hepatic toxicity

## CC1CNc2c(cccc2S(=O)(=O)N[C@@H](CCCNC(=N)N)C(=O)N2CC[C@@H](C)C[C@@H]2C(=O)O)C1 (some centres unmarked) [Argatroban]
[1]
  plasma half-life: approximately 45 minutes
[10]
  pKa: 13

## desirudin
[4]; in vivo
  bleeding rates versus heparin: similar
  rate of proximal deep vein thrombosis: reduced
[4]; versus enoxaparin or unfractionated heparin
  prevention of VTE: superior

## bivalirudin
[1]
  excreted by the kidneys: about 20%
[4]; acute coronary syndrome
  rate of bleeding compared to heparin: lower rate of bleeding

## hirudin
[1]
  distributed in the extravascular compartment: 80%
  found in the plasma: 20%
[4]; meta-analysis of 11 randomized trials, acute coronary syndrome
  incidence of bleeding compared with heparin: significantly higher incidence of bleeding
